{"source": "patent US12508259B2", "about": "“Pharmaceutical formulations containing Nalbuphine” (Humanwell Pharmaceutical US, Inc., priority 2022, dated 2025)", "key": {"[1]": {"experiment": "Nalbuphine solubility in different acids (overnight stirring, HPLC)", "assay_type": "physicochemical", "details": "approx. 0.5 mmol/mL acid; for solubility: aqueous buffer, thermodynamic from solid, Nalbuphine base Solubility", "method": "A preliminary assessment of Nalbuphine solubility in different acids was performed. After overnight continuous stirring, the suspensions were centrifuged, and supernatants were filtered through a 0.2 μm filter."}, "[2]": {"details": "commercially available Nalbuphine hydrochloride; cited from earlier work"}}, "note": "Structures can show the parent of a compound that is named as a salt. Where two headings read alike, the source gives them in different places.", "data": [{"smiles": "Oc1ccc2c3c1O[C@H]1[C@@H](O)CC[C@@]4(O)[C@@H](C2)N(CC2CCC2)CC[C@]314", "note": "[Nalbuphine base, N-cyclobutylmethyl-14-hydroxydihydronormorphine]", "values": [{"measurement": "solubility", "setting": "[1]; DL-malic acid solution, in DL-Malic acid", "result": 630, "unit": "mM"}, {"measurement": "solubility", "setting": "[1]; acetic acid solution, in Acetic acid", "result": 420, "unit": "mM"}, {"measurement": "solubility", "setting": "[1]; citric acid solution, in Citric acid", "result": "> 1000", "unit": "mM"}, {"measurement": "solubility", "setting": "[1]; hydrochloric acid solution, in Hydrochloride acid", "result": 90, "unit": "mM"}, {"measurement": "Nalbuphine base Solubility", "setting": "[1]; in Citric acid", "result": 1070, "unit": "mM"}, {"measurement": "Nalbuphine base Solubility", "setting": "[1]; in Sulfuric acid", "result": "~1120", "unit": "mM"}, {"measurement": "solubility", "setting": "[1]; lactic acid solution, in Lactic acid", "result": 460, "unit": "mM"}, {"measurement": "solubility", "setting": "[1]; phosphoric acid solution, in Phosphoric acid", "result": 530, "unit": "mM"}, {"measurement": "solubility", "setting": "[1]; succinic acid solution, in Succinic acid", "result": 480, "unit": "mM"}, {"measurement": "solubility", "setting": "[1]; sulfuric acid solution, in Sulfuric acid", "result": "> 1000", "unit": "mM"}, {"measurement": "solubility", "setting": "[1]; tartaric acid solution, in Tartaric acid", "result": 930, "unit": "mM"}]}, {"smiles": "Oc1ccc2c3c1O[C@H]1[C@@H](O)CC[C@@]4(O)[C@@H](C2)N(CC2CCC2)CC[C@]314", "note": "[Nalbuphine hydrochloride]", "values": [{"measurement": "solubility", "setting": "[2]", "result": "approximately 30 mg/mL"}]}]}
